# Results taken from patent US20130123618A1, “Imaging Agents” (priority 2008, published 2013).
# What was measured:
# tumor cells = test: overall conclusion of uptake studies in cancer cells in vitro; assay type: cell-based
# Procedure: In the in vitro studies the uptake rate of each amino acid compound is measured in each tumor line, as well as the dominant transport mechanisms of each tumor cell line. After trypsinization, cells are resuspended in serum-free media, then counted on a hemocytometer, with viability assessed through Trypan blue staining. Approximately 1×10^7 cells are exposed to each compound (15 μCi) in 15 ml of amino acid free media for 5, 10, 15, 30 and 60 minutes at 37° C. Cells are then centrifuged at 150×g for 5 minutes, rinsed in 5 ml cold-saline, recentrifuged, resuspended in 3 ml saline, and placed into 12×75 mm glass vials (Fisher, Pittsburgh, Pa.). The vials are placed in a Cobra-II gamma counter (Packard, Meriden, Conn.), with the activity per cell number determined. Inhibition studies determine the dominant transport mechanism (L, A or ASC) for each line [Martarello et al. (2002) supra; McConathy et al. (2003) supra]. For these studies, cells are exposed to the compounds for 30 minutes in amino acid free media containing one of three inhibitors (2-amino-norbornyl-2-carboxylic acid (BCH), 10 mM; α-(methylamino)-isobutyric acid (MeAlB), 10 mM; and an alanine-serine-cysteine mixture 1:1:1 (acs), 10 mM). Saline washes are performed as described above, and the filtered cells' radioactivity determined on the gamma counter. Comparisons with the 30 minute control uptake indicate the major transporters used. Results of these studies are found in FIGS. 1-18.
# Approximately 10^6 cells were exposed to the [^18F]amino acid candidate (5 μCi) in 3 ml of amino acid-free media±transporter inhibitors (10 mM) for 30 minutes under incubation conditions by the method previously described (McConathy, J.; Martarello, L.; Malveaux, E.; Camp, V.; Bowers, G.; Olson, J.; Goodman, M. (2002) Radiolabeled amino acids for tumor imaging with PET: radiosynthesis and biological evaluation of [^18F]2-amino-3-fluoro-2-methylpropanoic acid and [^18F]3-fluoro-2-methyl-2-(methylamino)-propanoic acid. J. Med. Chem. 45, 2240-2249). The inhibition studies determined the dominant transport mechanism (L, A) for each candidate PET amino acid for each tumor model. 2-Methylaminoisobutyric acid (MeAlB) and 2-aminobicyclo-[2.2.1]-heptane-2-carboxylic acid (BCH) serve as inhibitors for the “A”, “L” transport systems, respectively.
# [1] = system: A549, human lung cancer cells implanted in flanks; test: tissue distribution in SCID mice bearing A549 tumors; assay type: in vivo; conditions: for tissue distribution, blood / tissue distribution, bone / tissue distribution, brain / tissue distribution, heart / tissue distribution, kidney / tissue distribution, liver / tissue distribution, lung / tissue distribution, muscle / tissue distribution, pancreas / tissue distribution, spleen / tissue distribution, tumor: A549 tumor-bearing SCID mice, tail vein, ave
# Procedure: For the in vitro amino acid uptake studies, all cells can be grown to monolayer confluency in T-175 culture flasks [Corning, Corning, N.Y.] (approx. 1×10^8 cells/flask) in Dulbecco's Modified Eagle's Medium (DMEM) [Sigma, St. Louis, Mo.] in a humidified incubator (37° C., 5% CO2/95% air). Media are supplemented with 10% fetal calf serum [Hyclone, Logan, Utah], and antibiotics (10,000 U/ml penicillin and 10 mg/ml streptomycin) (Sigma, St. Louis, Mo.). For tissue culture passage, monolayer cells are detached by gentle trypsinization, resuspended in complete media, and split 1:10 into new T-flasks. Cultures are passaged weekly, and fed fresh media every 2 to 3 days. To initiate tumor growth in SCID mice, 1×10^6 cells are injected s.c. bilaterally into the flanks (inguinal region) of the recipient animals using a 1 ml syringe with a 27 gauge needle. Ex vivo experiments can be performed with animals containing tumors weighing between 500 mg and 1 g, as estimated by caliper measurement (tumor weight=(π/6)*abc, where a, b and c are the tumor length, width and height, respectively).
# Tissue distribution of the compounds is measured in SCID mice (average weight, 20-25 g) bearing human tumors as follows. The candidate radioligands (20 uCi in 0.4 ml 0.9% NaCl) are injected into the tail vein of tumor-bearing mice. […] Tissues (blood, heart, liver, lungs, kidneys, bone, thyroid, muscle, brain and tumor) are excised, rinsed in saline, and blotted dry. The tissues are weighed, placed into 12×75 mm glass vials, the radioactivity determined with a gamma counter, and the percent dose/gram calculated. Total activities of blood and muscle are calculated by assuming that they account for 7% and 40% of the total body mass, respectively.
# Tables 3-7 show the results of the biodistribution studies with the separate enantiomers of anti-2-[^18F]FACPC and racemic anti-2-[^18F]FACBC as a comparison in SCiD mice implanted in their flanks with A549, human lung cancer cells and DU145, human prostate cancer cells.
# 9L Rat gliosarcoma cells = test: in vitro amino acid uptake in 9L cells; assay type: cell-based
# Excerpt: Compounds have been evaluated in vitro for tumor binding specificity (i.e. uptake cells) using a variety of tumor cell lines available in the art, along with reference compounds such as Me-AlB and BCH. Detailed description of these assays can be found in Martarello et al. (2002) Journal of Medicinal Chemistry, 45:2250-2259 and McConathy et al. (2003) Nuclear Medicine and Biology, 30:477-490. These so called “amino acid uptake studies” are typically carried out with radiolabeled compounds in at least five phenotypically different human tumor cell lines (e.g., A549 lung carcinoma, MB468 breast carcinoma, DU145 prostate carcinoma-androgen independent, LnCap-androgen dependent, SKOV3 ovarian carcinoma, U87 glial blastoma, MIA PaCa-2 pancreas carcinoma, MDA MB231 breast carcinoma). These tumor cell lines can be grown either in vitro or in vivo with severe combined immunodeficiency (SCID) mice as a host. The afore-mentioned tumor cell lines are available at the Winship Cancer Institute of Emory University.
# For the in vitro amino acid uptake studies, all cells can be grown to monolayer confluency in T-175 culture flasks [Corning, Corning, N.Y.] (approx. 1×10^8 cells/flask) in Dulbecco's Modified Eagle's Medium (DMEM) [Sigma, St. Louis, Mo.] in a humidified incubator (37° C., 5% CO2/95% air). […]
# (§1) In the in vitro studies the uptake rate of each amino acid compound is measured in each tumor line, as well as the dominant transport mechanisms of each tumor cell line. After trypsinization, cells are resuspended in serum-free media, then counted on a hemocytometer, with viability assessed through Trypan blue staining. […] The vials are placed in a Cobra-II gamma counter (Packard, Meriden, Conn.), with the activity per cell number determined. […] Saline washes are performed as described above, and the filtered cells' radioactivity determined on the gamma counter. […]
# (§2) The uptake of all compounds were measured in human and rat cancer cell lines and the dominant transport (“A” and “L”) mechanism of each culture were determined. […]
# [2] = system: MDA MB231 Human Breast carcinoma cells; test: in vitro amino acid uptake in MDA MB231 cells; assay type: cell-based
# Procedure: (§3) Compounds have been evaluated in vitro for tumor binding specificity (i.e. uptake cells) using a variety of tumor cell lines available in the art, along with reference compounds such as Me-AlB and BCH. Detailed description of these assays can be found in Martarello et al. (2002) Journal of Medicinal Chemistry, 45:2250-2259 and McConathy et al. (2003) Nuclear Medicine and Biology, 30:477-490. […]
# as §1, §2
# [3] = system: LnCap Human Prostate carcinoma cells; test: in vitro amino acid uptake in LnCap cells; assay type: cell-based
# Procedure: as §3, §1, §2
# [4] = A549 cells implanted subcutaneously in flanks of SCID mice
# [5] = 15 min, listed as Anti-2-[^18F]FACPC Enantiomer 1
# [6] = 60 min, listed as Anti-2-[^18F]FACPC Enantiomer 1
structure (smiles),measurement,setting,value
NC1(C(=O)O)CCC1[18F] (racemic) [racemic anti-2-[^18F]FACBC],selective uptake in tumor cells,tumor cells,selectively taken up in tumor cells
same,"tissue distribution, blood",[1]; 15 min,3.39 percent dose/gram
same,"tissue distribution, bone",[1]; 15 min,2.07 percent dose/gram
same,"tissue distribution, brain",[1]; 15 min,0.27 percent dose/gram
same,"tissue distribution, heart",[1]; 15 min,2.71 percent dose/gram
same,"tissue distribution, kidney",[1]; 15 min,10.12 percent dose/gram
same,"tissue distribution, liver",[1]; 15 min,3.15 percent dose/gram
same,"tissue distribution, lung",[1]; 15 min,4.23 percent dose/gram
same,"tissue distribution, muscle",[1]; 15 min,1.38 percent dose/gram
same,"tissue distribution, pancreas",[1]; 15 min,48.45 percent dose/gram
same,"tissue distribution, spleen",[1]; 15 min,7.91 percent dose/gram
same,"tissue distribution, tumor",[1]; 15 min,5.11 percent dose/gram
same,"tissue distribution, blood",[1]; 30 min,2.43 percent dose/gram
same,"tissue distribution, bone",[1]; 30 min,1.64 percent dose/gram
same,"tissue distribution, brain",[1]; 30 min,0.26 percent dose/gram
same,"tissue distribution, heart",[1]; 30 min,2.24 percent dose/gram
same,"tissue distribution, kidney",[1]; 30 min,5.48 percent dose/gram
same,"tissue distribution, liver",[1]; 30 min,2.70 percent dose/gram
same,"tissue distribution, lung",[1]; 30 min,3.03 percent dose/gram
same,"tissue distribution, muscle",[1]; 30 min,1.44 percent dose/gram
same,"tissue distribution, pancreas",[1]; 30 min,44.17 percent dose/gram
same,"tissue distribution, spleen",[1]; 30 min,5.03 percent dose/gram
same,"tissue distribution, tumor",[1]; 30 min,4.29 percent dose/gram
same,"tissue distribution, blood",[1]; 60 min,1.09 percent dose/gram
same,"tissue distribution, bone",[1]; 60 min,1.02 percent dose/gram
same,"tissue distribution, brain",[1]; 60 min,0.16 percent dose/gram
same,"tissue distribution, heart",[1]; 60 min,1.41 percent dose/gram
same,"tissue distribution, kidney",[1]; 60 min,2.25 percent dose/gram
same,"tissue distribution, liver",[1]; 60 min,1.47 percent dose/gram
same,"tissue distribution, lung",[1]; 60 min,1.40 percent dose/gram
same,"tissue distribution, muscle",[1]; 60 min,0.90 percent dose/gram
same,"tissue distribution, pancreas",[1]; 60 min,20.64 percent dose/gram
same,"tissue distribution, spleen",[1]; 60 min,2.86 percent dose/gram
same,"tissue distribution, tumor",[1]; 60 min,3.04 percent dose/gram
same,"tissue distribution, blood",[1]; 120 min,0.41 percent dose/gram
same,"tissue distribution, bone",[1]; 120 min,0.62 percent dose/gram
same,"tissue distribution, brain",[1]; 120 min,0.15 percent dose/gram
same,"tissue distribution, heart",[1]; 120 min,0.86 percent dose/gram
same,"tissue distribution, kidney",[1]; 120 min,1.03 percent dose/gram
same,"tissue distribution, liver",[1]; 120 min,0.59 percent dose/gram
same,"tissue distribution, lung",[1]; 120 min,0.56 percent dose/gram
same,"tissue distribution, muscle",[1]; 120 min,0.77 percent dose/gram
same,"tissue distribution, pancreas",[1]; 120 min,9.80 percent dose/gram
same,"tissue distribution, spleen",[1]; 120 min,1.48 percent dose/gram
same,"tissue distribution, tumor",[1]; 120 min,2.30 percent dose/gram
same,uptake of radioactivity in the tumors compared with muscle,"[1]; A549 tumors, SCID mice, time points sampled post injection",greater than muscle
same,% Dose uptake per 0.5 × 10−6 Cells,9L Rat gliosarcoma cells,2.3 % Dose/0.5 × 10^−6
"N[C@]1(C(=O)O)CCC[C@@H]1[18F] (single isomer, unassigned; enantiomer 1) [Enantiomer 1, anti-2-[^18F]FACPC]",selective uptake in tumor cells,tumor cells,selectively taken up in tumor cells
same,in vitro uptake in cancer cells compared with enantiomer 2,tumor cells; in vitro in cancer cells,greater uptake than enantiomer 2
same,in vivo uptake compared with enantiomer 2,[1]; [4],greater uptake than enantiomer 2
same,in vivo uptake compared with racemic 2-[^18F]FACBC,[1]; [4],significantly higher in vivo uptake than racemic 2-[^18F]FACBC
same,"tissue distribution, blood",[1]; [5],3.98 percent dose/gram
same,"tissue distribution, bone",[1]; [5],3.08 percent dose/gram
same,"tissue distribution, brain",[1]; [5],0.81 percent dose/gram
same,"tissue distribution, heart",[1]; [5],3.78 percent dose/gram
same,"tissue distribution, kidney",[1]; [5],8.0 percent dose/gram
same,"tissue distribution, liver",[1]; [5],4.01 percent dose/gram
same,"tissue distribution, lung",[1]; [5],4.09 percent dose/gram
same,"tissue distribution, muscle",[1]; [5],2.47 percent dose/gram
same,"tissue distribution, pancreas",[1]; [5],57.83 percent dose/gram
same,"tissue distribution, spleen",[1]; [5],12.52 percent dose/gram
same,"tissue distribution, tumor",[1]; [5],9.77 percent dose/gram
same,"tissue distribution, blood",[1]; [6],1.59 percent dose/gram
same,"tissue distribution, bone",[1]; [6],2.43 percent dose/gram
same,"tissue distribution, brain",[1]; [6],0.81 percent dose/gram
same,"tissue distribution, heart",[1]; [6],2.49 percent dose/gram
same,"tissue distribution, kidney",[1]; [6],4.02 percent dose/gram
same,"tissue distribution, liver",[1]; [6],2.16 percent dose/gram
same,"tissue distribution, lung",[1]; [6],2.07 percent dose/gram
same,"tissue distribution, muscle",[1]; [6],2.43 percent dose/gram
same,"tissue distribution, pancreas",[1]; [6],27.09 percent dose/gram
same,"tissue distribution, spleen",[1]; [6],4.13 percent dose/gram
same,"tissue distribution, tumor",[1]; [6],7.16 percent dose/gram
same,% Dose uptake per 0.5 × 10−6 Cells,[2],9.1 % Dose/0.5 × 10^−6
same,% Dose uptake per 0.5 × 10−6 Cells,9L Rat gliosarcoma cells,12 % Dose/0.5 × 10^−6
same,% Dose uptake per 0.5 × 10−6 Cells,[3],6.5 % Dose/0.5 × 10^−6
